Laboratory results from US20090239887A1, “Method of resolution and antiviral activity of 1,3-oxathiolane nucleoside enantiomers” (Emory University, priority 1990, published 2009).
Read-outs that look alike come from different tables or passages of the source.

Tests used:
HIV-1 (strain LAV) = experiment: microbe, parasite or virus in culture; format: cell-based
Text: It is often desirable to screen a number of racemic mixtures of nucleosides as a preliminary step to determine which warrant further resolution into enantiomerically enriched components and evaluation of antiviral activity. The ability of nucleosides to inhibit HIV can be measured by various experimental techniques. The technique used herein, and described in detail below, measures the inhibition of viral replication in phytohemagglutinin (PHA) stimulated human peripheral blood mononuclear (PBM) cells infected with HIV-1 (strain LAV). The amount of virus produced is determined by measuring the virus-coded reverse transcriptase enzyme. The amount of enzyme produced is proportional to the amount of virus produced.
A. Three-day-old phytohemagglutinin-stimulated PBM cells (10^6 cells/ml) from hepatitis B and HIV-1 seronegative healthy donors were infected with HIV-1 (strain LAV) at a concentration of about 100 times the 50% tissue culture infectious dose (TICD 50) per ml and cultured in the presence and absence of various concentrations of antiviral compounds.
B. Approximately one hour after infection, the medium, with the compound to be tested (2 times the final concentration in medium) or without compound, was added to the flasks (5 ml; final volume 10 ml). AZT was used as a positive control.
C. The cells were exposed to the virus (about 2×10^5 dpm/ml, as determined by reverse transcriptase assay) and then placed in a CO2 incubator. HIV-1 (strain LAV) was obtained from the Center for Disease Control, Atlanta, Ga. The methods used for culturing the PBM cells, harvesting the virus and determining the reverse transcriptase activity were those described by McDougal et al. (J. Immun. Meth. 76, 171-183, 1985) and Spira et al. (J. Clin. Meth. 25, 97-99, 1987), except that fungizone was not included in the medium (see Schinazi, et al., Antimicrob. Agents Chemother. 32, 1784-1787 (1988); Id., 34:1061-1067 (1990)).
D. On day 6, the cells and supernatant were transferred to a 15 ml tube and centrifuged at about 900 g for 10 minutes. Five ml of supernatant were removed and the virus was concentrated by centrifugation at 40,000 rpm for 30 minutes (Beckman 70.1 Ti rotor). The solubilized virus pellet was processed for determination of the levels of reverse transcriptase. Results are expressed in dpm/ml of sampled supernatant. Virus from smaller volumes of supernatant (1 ml) can also be concentrated by centrifugation prior to solubilization and determination of reverse transcriptase levels.

HIV = details: cited from earlier work
[1] = test system: AZT-resistant, HIV isolates; details: isolates from patients treated with AZT for longer than 36 weeks; cited from earlier work
[2] = Egress of radiolabeled (±)-FTC from human PBM cells; format: in vitro ADME; details: human PBM cells, after 24 hour pulse with 10 μM; read-out: intracellular half-life (converted)
Method: (§1) Studies are conducted in duplicate. Uninfected cells (2×10^6 ml) are suspended in the appropriate medium supplemented with serum (10 ml per timepoint) and incubated at 37° C. in a 5% CO2 incubator. Radiolabeled FTC concentration is 10 μM. After pulsing the cells with the labeled compound for the desired time, the cells are thoroughly washed and then replenished with fresh medium without the antiviral drugs (0 hr). At 0, 2, 4, 6, 12, 24, and 48 hours (second incubation time), the cells are removed, and immediately extracted with 60% cold methanol/water. The extract is obtained by centrifugation and removal of the cell pellet. The extracts are lyophilized and then stored at −70° C. Prior to analysis, the material is resuspended in 250 μl of HPLC buffer and immediately analyzed.
(§2) Either a Micromeritics or Hewlett-Packard model 1090 PHLC system is used with an anion exchange Partisil 10 SAX column (Whatman, Inc.), at a flow rate of 1 ml/min, 1 kpsi pressure, using uv detection at 262 nm.
(§3) The mobile phase consists of:
(§4) b. 2 mM NaH2PO4/16 mM NaOAc (pH=6.6)
(§5) Separation method: isocratic for 5 min with A, followed by a 15 min linear gradient to 100% B, followed by a 20 min linear gradient to 100% C, followed by 10 min linear gradient to 100% D, followed by 30 min isocratic with 100% D.

human PBM cells = experiment: as above; format: in vitro ADME; details: 48 hours after the removal of the extracellular drug
Method: as §1, §2, §3, §4, §5

HIV RT = target: T1, HIV RT (Human immunodeficiency virus type 1 group M subtype B, UniProt P04585); experiment: Affinity of triphosphate against HIV RT; format: biochemical; details: read-out: affinity (K^1) against HIV RT
T1 construct: (±)-FTC triphosphate against HIV RT is 0.2 μM

[3] = Cytotoxicity in mitogen stimulated uninfected human PBM cells (trypan blue exclusion); format: cell-based
Text: The cells were counted after 6 days using a hemacytometer and the trypan blue exclusion method, as described by Schinazi et al., Antimicrobial Agents and Chemotherapy, 22(3), 499 (1982).

[4] = target: reverse transcriptase activity; details: read-out: EC50, concentration required to reduce the reverse transcriptase activity by 50%; cited from earlier work

For `Nc1ccn(C2CSC(CO)O2)c(=O)n1` (racemic) [BCH-189 (±), 2-hydroxymethyl-5-(cytosin-1-yl)-1,3-oxathiolane, reference compound], the DPM/ml (HIV-1 (strain LAV); 0.001 μM) was 65,170 DPM/ml, the DPM/ml (HIV-1 (strain LAV); 0.005 μM) was 62,595 DPM/ml and the DPM/ml (HIV-1 (strain LAV); 0.01 μM) was 70,875 DPM/ml. The DPM/ml (HIV-1 (strain LAV); 0.05 μM) was 77,650 DPM/ml, the DPM/ml (HIV-1 (strain LAV); 0.1 μM) was 33,165 DPM/ml and the DPM/ml (HIV-1 (strain LAV); 0.5 μM) was 10,765 DPM/ml. For the same compound, the DPM/ml (HIV-1 (strain LAV); 1 μM) was 7,745 DPM/ml, the DPM/ml (HIV-1 (strain LAV); 5 μM) was 6,800 DPM/ml and the DPM/ml (HIV-1 (strain LAV); 10 μM) was 4,470 DPM/ml. For the same compound, the EC50 (HIV-1 (strain LAV); Human immunodeficiency virus 1, PBMC, human PBM cells infected with HIV-1, enantiomers isolated by chiral HPLC (Example 3), read-out: EC50) was 81 nM, the inhibition at 0.001 µM (HIV-1 (strain LAV); Human immunodeficiency virus 1, PBMC, 0.001 μM, read-out: % Inhibition (Corrected)) was 36.1% and the inhibition at 0.005 µM (HIV-1 (strain LAV); Human immunodeficiency virus 1, PBMC, 0.005 μM, read-out: % Inhibition (Corrected)) was 38.9%. It also gave an inhibition at 0.01 µM (HIV-1 (strain LAV); Human immunodeficiency virus 1, PBMC, 0.01 μM, read-out: % Inhibition (Corrected)) of 29.8%, an inhibition at 0.05 µM (HIV-1 (strain LAV); Human immunodeficiency virus 1, PBMC, 0.05 μM, read-out: % Inhibition (Corrected)) of 22.3% and an inhibition at 0.1 µM (HIV-1 (strain LAV); Human immunodeficiency virus 1, PBMC, 0.1 μM, read-out: % Inhibition (Corrected)) of 71.4%. The inhibition at 0.5 µM (HIV-1 (strain LAV); Human immunodeficiency virus 1, PBMC, 0.5 μM, read-out: % Inhibition (Corrected)) was 96.2%, the inhibition at 1 µM (HIV-1 (strain LAV); Human immunodeficiency virus 1, PBMC, 1 μM, read-out: % Inhibition (Corrected)) was 99.5% and the inhibition at 5 µM (HIV-1 (strain LAV); Human immunodeficiency virus 1, PBMC, 5 μM, read-out: % Inhibition (Corrected)) was 101%. The inhibition at 10 µM (HIV-1 (strain LAV); Human immunodeficiency virus 1, PBMC, 10 μM, read-out: % Inhibition (Corrected)) was 103%, the “activity against HIV compared with AZT” value (HIV) was “approximately the same activity against HIV as AZT” and the “replication of AZT-resistant HIV isolates” value [1] was “inhibit the replication”.
`Nc1nc(=O)n(C2CSC(COP(=O)(O)OP(=O)(O)OP(=O)(O)O)O2)cc1F` (racemic) [FTC-triphosphate] showed a half-life at 10 μM [2] of roughly 720 min, an intracellular concentration (human PBM cells) of 1 to 5 µM and a Ki (HIV RT) of 200 nM.
In the case of `Nc1nc(=O)n(C2CSC(CO)O2)cc1F` (single isomer, unassigned; (+)) [DLS-059 (+), (+)-2-hydroxymethyl-5-(5-fluorocytosin-1-yl)-1,3-oxathiolane], the DPM/ml (HIV-1 (strain LAV); 0.001 μM, listed as FTC (+)) is reported as 94,340 DPM/ml, the “% Inhibition (Corrected)” value (HIV-1 (strain LAV); 0.001 μM, listed as FTC (+), 0.001 µM) is reported as 3.8% and the DPM/ml (HIV-1 (strain LAV); 0.005 μM, listed as FTC (+)) is reported as 107,430 DPM/ml. For the same compound, the “% Inhibition (Corrected)” value (HIV-1 (strain LAV); 0.005 μM, listed as FTC (+), 0.005 µM) was −10.6%, the DPM/ml (HIV-1 (strain LAV); 0.01 μM, listed as FTC (+)) was 99,465 DPM/ml and the “% Inhibition (Corrected)” value (HIV-1 (strain LAV); 0.01 μM, listed as FTC (+), 0.01 µM) was −1.8%. For the same compound, the DPM/ml (HIV-1 (strain LAV); 0.05 μM, listed as FTC (+)) was 87,120 DPM/ml, the “% Inhibition (Corrected)” value (HIV-1 (strain LAV); 0.05 μM, listed as FTC (+), 0.05 µM) was 11.8% and the DPM/ml (HIV-1 (strain LAV); 0.1 μM, listed as FTC (+)) was 86,340 DPM/ml. For the same compound, the “% Inhibition (Corrected)” value (HIV-1 (strain LAV); 0.1 μM, listed as FTC (+), 0.1 µM) was 12.7%, the DPM/ml (HIV-1 (strain LAV); 0.5 μM, listed as FTC (+)) was 33,225 DPM/ml and the “% Inhibition (Corrected)” value (HIV-1 (strain LAV); 0.5 μM, listed as FTC (+), 0.5 µM) was 71.4%. It also gave an EC50 (HIV-1 (strain LAV); summary range, listed as (+)-enantiomer of FTC, read-out: EC50 against HIV) of 280 to 840 nM.
In the case of `Nc1nc(=O)n(C2CSC(CO)O2)cc1F` (single isomer, unassigned; (-)) [DLS-058 (−), (−)-2-hydroxymethyl-5-(5-fluorocytosin-1-yl)-1,3-oxathiolane], the “% Inhibition (Corrected)” value (HIV-1 (strain LAV); 0.001 μM, listed as FTC (−)) is reported as 23.8%, the DPM/ml (HIV-1 (strain LAV); 0.001 μM, listed as FTC (−)) is reported as 76,275 DPM/ml and the “% Inhibition (Corrected)” value (HIV-1 (strain LAV); 0.005 μM, listed as FTC (−)) is reported as 43.3%. For the same compound, the DPM/ml (HIV-1 (strain LAV); 0.005 μM, listed as FTC (−)) was 58,590 DPM/ml, the “% Inhibition (Corrected)” value (HIV-1 (strain LAV); 0.01 μM, listed as FTC (−)) was 24.8% and the DPM/ml (HIV-1 (strain LAV); 0.01 μM, listed as FTC (−)) was 75,350 DPM/ml. The “% Inhibition (Corrected)” value (HIV-1 (strain LAV); 0.05 μM, listed as FTC (−)) was 76.2%, the DPM/ml (HIV-1 (strain LAV); 0.05 μM, listed as FTC (−)) was 28,890 DPM/ml and the “% Inhibition (Corrected)” value (HIV-1 (strain LAV); 0.1 μM, listed as FTC (−)) was 93.5%. The DPM/ml (HIV-1 (strain LAV); 0.1 μM, listed as FTC (−)) was 13,175 DPM/ml, the “% Inhibition (Corrected)” value (HIV-1 (strain LAV); 0.5 μM, listed as FTC (−)) was 97.6% and the DPM/ml (HIV-1 (strain LAV); 0.5 μM, listed as FTC (−)) was 9,485 DPM/ml. The EC50 (HIV-1 (strain LAV); summary range, read-out: EC50 against HIV) was 7.7 to 20 nM, the IC50 at 6 days [3] was greater than 100 µM and the “activity against HBV” value (HBV (hepatitis B virus)) was “significant activity”.
In the case of `Nc1nc2c(ncn2[C@H]2C=C[C@@H](CO)O2)c(=O)[nH]1` [(+)-enantiomer of carbovir, 2′,3′-didehydro-2′,3′-dideoxyguanosine], the EC50 [4] is listed as greater than 60000 nM.
For `Nc1nc2c(ncn2[C@H]2C=C[C@@H](CO)O2)c(=O)[nH]1` [(−)-enantiomer of carbovir, 2′,3′-didehydro-2′,3′-dideoxyguanosine], the EC50 [4] is given as 800 nM.
